Results reported in patent publication US20240368150A1 (Hoffmann-La Roche Inc., priority 2021, published 2024).
Read-outs that look alike come from different tables or passages of the source.

Legend:
primary human T-cells [1] = assay: Proliferation assay after 5 days (CellTiter-Glo, CD3 stimulation; PBS counter screen); assay type: cell-based; settings: Homo sapiens, T-cell, 120 h, CD3 stimulation; for Emax: 5 days, normalized to reference compound A1 as stimulator control = 100%, DMSO neutral control, read-out: Emax proliferation (% activation); for EC50: primary human T-cells, CellTiter-Glo after 5 days, EC50 of fitted sigmoidal curve, read-out: Tcell Proliferation CD3 EC50
In short: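 After compound addition to medium-only plates, cells are cultured 5 days, equilibrated to room temperature, mixed with an equal volume of CellTiter-Glo 2.0 and rocked 15 min before luminescence is read. Signal reflects ATP content, taken as proportional to cell number.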

primary human T-cells [2] = tested on: primary human T-cells

EC50 (primary human T-cells [2]) | SMILES | Emax (primary human T-cells [1]) | EC50 (primary human T-cells [1])
5.44 µM | CC(C)(C)c1nnc(-c2cc3c(cc2F)S(=O)(=O)C[C@H](NC(=O)CCCN)C(=O)N3Cc2ccc(Cl)cc2)o1 [Example 267, 4-amino-N-[(3R)-7-(5-tert-butyl-1,3,4-oxadiazol-2-yl)-5-[(4-chlorophenyl)methyl]-8-fluoro-1,1,4-trioxo-2,3-dihydro-1λ^6,5-benzothiazepin-3-yl]butanamide] | 74% | 3.07 µM
7.83 µM | CN[C@@H](C)C(=O)N[C@H]1CS(=O)(=O)c2cc(F)c(-c3nnc(C(C)(C)C)o3)cc2N(Cc2ccc(Cl)cc2)C1=O [Example 268, (2S)—N-[(3R)-7-(5-tert-butyl-1,3,4-oxadiazol-2-yl)-5-[(4-chlorophenyl)methyl]-8-fluoro-1,1,4-trioxo-2,3-dihydro-1λ^6,5-benzothiazepin-3-yl]-2-(methylamino)propanamide] | 95% | 0.249 µM
> 10 µM | CN[C@@H](CO)C(=O)N[C@H]1CS(=O)(=O)c2cc(F)c(-c3nnc(C(C)(C)C)o3)cc2N(Cc2ccc(Cl)cc2)C1=O [Example 269, (2S)-3-hydroxy-2-(methylamino)-N-[(3R)-7-(5-tert-butyl-1,3,4-oxadiazol-2-yl)-5-[(4-chlorophenyl)methyl]-8-fluoro-1,1,4-trioxo-2,3-dihydro-1λ^6,5-benzothiazepin-3-yl]propanamide] | 67% | 5.84 µM
4.81 µM | CC(C)(C)c1nnc(-c2cc3c(cc2Br)S(=O)(=O)C[C@H](N)C(=O)N3Cc2ccc(Cl)cc2)o1 [Example 271, (3R)-3-amino-8-bromo-7-(5-tert-butyl-1,3,4-oxadiazol-2-yl)-5-[(4-chlorophenyl)methyl]-1,1-dioxo-2,3-dihydro-1λ^6,5-benzothiazepin-4-one] | 91% | 3.19 µM
7.21 µM | CC(C)(C)c1nnc(-c2cc3c(cc2O)S(=O)(=O)C[C@H](N)C(=O)N3Cc2ccc(Cl)cc2)o1 [Example 273, (3R)-3-amino-7-(5-tert-butyl-1,3,4-oxadiazol-2-yl)-5-[(4-chlorophenyl)methyl]-8-hydroxy-1,1-dioxo-2,3-dihydro-1λ^6,5-benzothiazepin-4-one] | 61% | 3.19 µM
> 20 µM | CN(C)c1cc2c(cc1-c1nnc(C(C)(C)C)o1)N(Cc1ccc(Cl)cc1)C(=O)[C@@H](N)CS2(=O)=O [Example 274, (3R)-3-amino-7-(5-tert-butyl-1,3,4-oxadiazol-2-yl)-5-[(4-chlorophenyl)methyl]-8-(dimethylamino)-1,1-dioxo-2,3-dihydro-1λ^6,5-benzothiazepin-4-one] | 10% | > 20 µM
9.15 µM | CC(C)(C)c1nnc(-c2cc3c(cc2N)S(=O)(=O)C[C@H](N)C(=O)N3Cc2ccc(Cl)cc2)o1 [Example 275, (3R)-3,8-diamino-7-(5-tert-butyl-1,3,4-oxadiazol-2-yl)-5-[(4-chlorophenyl)methyl]-1,1-dioxo-2,3-dihydro-1λ^6,5-benzothiazepin-4-one] | 108% | 5.49 µM
1.06 µM | Cc1cc2c(cc1-c1nnc(C(C)(C)C#N)o1)N(Cc1ccc(Cl)cc1)C(=O)[C@@H](N)CS2(=O)=O [Example 276, 2-[5-[(3R)-3-amino-5-[(4-chlorophenyl)methyl]-8-methyl-1,1,4-trioxo-2,3-dihydro-1λ^6,5-benzothiazepin-7-yl]-1,3,4-oxadiazol-2-yl]-2-methyl-propanenitrile] | 96% | 2.73 µM
6.94 µM | Cc1cc2c(cc1-c1nnc(C(C)C#N)o1)N(Cc1ccc(Cl)cc1)C(=O)[C@@H](N)CS2(=O)=O (stereo partly drawn) [Example 277, 2-[5-[(3R)-3-amino-5-[(4-chlorophenyl)methyl]-8-methyl-1,1,4-trioxo-2,3-dihydro-1λ^6,5-benzothiazepin-7-yl]-1,3,4-oxadiazol-2-yl]propanenitrile] | 59% | 8.22 µM
0.47 µM | CCn1cc(-c2cc3c(cc2F)S(=O)(=O)C[C@H](N)C(=O)N3Cc2ccc(Cl)cc2)cn1 [Example 279] | 90% | 5.34 µM
0.853 µM | CCn1ccc(-c2cc3c(cc2F)S(=O)(=O)C[C@H](N)C(=O)N3Cc2ccc(Cl)cc2)n1 [Example 280, (3R)-3-amino-5-[(4-chlorophenyl)methyl]-7-(1-ethylpyrazol-3-yl)-8-fluoro-1,1-dioxo-2,3-dihydro-1λ^6,5-benzothiazepin-4-one] | 52% | 19.5 µM
> 10 µM | CN1CC(n2cc(-c3cc4c(cc3F)S(=O)(=O)C[C@H](N)C(=O)N4Cc3ccc(Cl)cc3)cn2)CC(F)(F)C1 (stereo partly drawn) [Example 281, (3R)-3-amino-5-[(4-chlorophenyl)methyl]-7-[1-(5,5-difluoro-1-methyl-3-piperidyl)pyrazol-4-yl]-8-fluoro-1,1-dioxo-2,3-dihydro-1λ^6,5-benzothiazepin-4-one] | 89% | 1.04 µM
1.01 µM | CC(C)(C)c1ccn(-c2cc3c(cc2F)S(=O)(=O)C[C@H](N)C(=O)N3Cc2ccc(Cl)cc2)n1 [Example 283, (3R)-3-amino-7-(3-tert-butylpyrazol-1-yl)-5-[(4-chlorophenyl)methyl]-8-fluoro-1,1-dioxo-2,3-dihydro-1λ^6,5-benzothiazepin-4-one] | 67% | 5.49 µM
> 20 µM | CCc1cnn(-c2cc3c(cc2F)S(=O)(=O)C[C@H](N)C(=O)N3Cc2ccc(Cl)cc2)c1 [Example 284, (3R)-3-amino-5-[(4-chlorophenyl)methyl]-7-(4-ethylpyrazol-1-yl)-8-fluoro-1,1-dioxo-2,3-dihydro-1λ^6,5-benzothiazepin-4-one] | 30% | 5.49 µM
9.37 µM | CCn1cnc(-c2cc3c(cc2F)S(=O)(=O)C[C@H](N)C(=O)N3Cc2ccc(Cl)cc2)n1 [Example 285, (3R)-3-amino-5-[(4-chlorophenyl)methyl]-7-(1-ethyl-1,2,4-triazol-3-yl)-8-fluoro-1,1-dioxo-2,3-dihydro-1λ^6,5-benzothiazepin-4-one] | 60% | 5.49 µM
19.3 µM | CC(C)(C)n1ccc(-c2cc3c(cc2F)S(=O)(=O)C[C@H](N)C(=O)N3Cc2ccc(Cl)cc2)n1 [Example 287, (3R)-3-amino-7-(1-tert-butylpyrazol-3-yl)-5-[(4-chlorophenyl)methyl]-8-fluoro-1,1-dioxo-2,3-dihydro-1λ^6,5-benzothiazepin-4-one] | 66% | 2.21 µM
> 10 µM | N[C@H]1CS(=O)(=O)c2cc(F)c(-c3nc4n(n3)CCNC4C(F)(F)F)cc2N(Cc2ccc(OC(F)(F)F)cc2)C1=O (stereo partly drawn) [Example 288, (3R)-3-amino-8-fluoro-1,1-dioxo-5-[[4-(trifluoromethoxy)phenyl]methyl]-7-[8-(trifluoromethyl)-5,6,7,8-tetrahydro-[1,2,4]triazolo[1,5-a]pyrazin-2-yl]-2,3-dihydro-1λ^6,5-benzothiazepin-4-one] | 71% | 4.31 µM
1.7 µM | N[C@H]1CS(=O)(=O)c2cc(F)c(-c3noc(C(=O)NCC(F)(F)F)n3)cc2N(Cc2ccc(Cl)cc2)C1=O [Example 291, 3-[(3R)-3-amino-5-[(4-chlorophenyl)methyl]-8-fluoro-1,1,4-trioxo-2,3-dihydro-1λ^6,5-benzothiazepin-7-yl]-N-(2,2,2-trifluoroethyl)-1,2,4-oxadiazole-5-carboxamide] | 104% | 0.446 µM
0.373 µM | N[C@H]1CS(=O)(=O)c2cc(F)c(-c3noc(C(N)(C4CCOCC4)C(F)(F)F)n3)cc2N(Cc2ccc(Cl)cc2)C1=O (stereo partly drawn) [Example 294, (3R)-3-amino-7-[5-(1-amino-2,2,2-trifluoro-1-tetrahydropyran-4-yl-ethyl)-1,2,4-oxadiazol-3-yl]-5-[(4-chlorophenyl)methyl]-8-fluoro-1,1-dioxo-2,3-dihydro-1λ^6,5-benzothiazepin-4-one] | 143% | 0.261 µM
0.885 µM | CC(F)(F)CNC(=O)c1nc(-c2cc3c(cc2F)S(=O)(=O)C[C@H](N)C(=O)N3Cc2ccc(Cl)cc2)no1 [Example 295, 3-[(3R)-3-amino-5-[(4-chlorophenyl)methyl]-8-fluoro-1,1,4-trioxo-2,3-dihydro-1λ^6,5-benzothiazepin-7-yl]-N-(2,2-difluoropropyl)-1,2,4-oxadiazole-5-carboxamide] | 97% | 1.39 µM
0.71 µM | N[C@H]1CS(=O)(=O)c2cc(F)c(-c3noc(C(F)C(F)(F)F)n3)cc2N(Cc2ccc(Cl)cc2)C1=O (stereo partly drawn) [Example 296, (3R)-3-amino-5-[(4-chlorophenyl)methyl]-8-fluoro-1,1-dioxo-7-[5-(1,2,2,2-tetrafluoroethyl)-1,2,4-oxadiazol-3-yl]-2,3-dihydro-1λ^6,5-benzothiazepin-4-one] | 66% | 0.687 µM
2.5 µM | CN(C)C(=O)c1nc(-c2cc3c(cc2F)S(=O)(=O)C[C@H](N)C(=O)N3Cc2ccc(Cl)cc2)no1 [Example 299, 3-[(3R)-3-amino-5-[(4-chlorophenyl)methyl]-8-fluoro-1,1,4-trioxo-2,3-dihydro-1λ^6,5-benzothiazepin-7-yl]-N,N-dimethyl-1,2,4-oxadiazole-5-carboxamide] | 111% | 5.01 µM
6.14 µM | CC(O)(CNC(=O)c1nc(-c2cc3c(cc2F)S(=O)(=O)C[C@H](N)C(=O)N3Cc2ccc(Cl)cc2)no1)C(F)(F)F (stereo partly drawn) [Example 301, 3-[(3R)-3-amino-5-[(4-chlorophenyl)methyl]-8-fluoro-1,1,4-trioxo-2,3-dihydro-1λ^6,5-benzothiazepin-7-yl]-N-(3,3,3-trifluoro-2-hydroxy-2-methyl-propyl)-1,2,4-oxadiazole-5-carboxamide] | 93% | 2.44 µM
